Like-named read-outs stand apart in the source and are kept apart here.
Tests used:
Type in all cases: in vivo
[1] = tested on: Key Broadleaf Weed and Crop Species; assay: Post-emergent Test II herbicidal activity (Table 15); conditions: post-emergence, 336 h, 14 d; for pest or weed control at 35 g/ha: 35 g ai/ha; for pest or weed control at 70 g/ha: 70 g ai/ha; for pest or weed control at 280 g/ha: 280 g ai/ha
In short: (§1)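 Greenhouse-grown seedlings at first/second true leaf receive a track spray at 187 L/ha, using a highest rate plus two-fold serial dilutions down to 1/16×. Watering is by subirrigation to avoid wash-off. Percent injury (0-100) is judged by eye at 14 d against untreated plants.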

wild oats (Avena fatua) = assay: Post-emergent Test I herbicidal activity; conditions: 4 Kg ai/ha
Method: (§2) Post-emergent Test I Seeds test species were obtained from commercial suppliers and planted into a 5″-round pot containing soil-less media mix (metro-mix 360®, Sun Gro Horticulture). Postemergence treatments were planted 8-12 days prior to application and cultured in a greenhouse equipped with supplemental light sources to provide a 16 h photoperiod at 24-29° C. All pots were surface irrigated. Approximately 10 milligrams (mg) of each compound were dissolved in 1.3 mL acetone-DMSO (97:3, v/v) and diluted with 4.1 mL water-isopropanol-crop oil concentrate (78:20:2, v/v/v) containing 0.02% Triton X-155. Treatments were serial diluted with the above formulation solvent to provide 1.85, 0.926, 0.462 and 0.231 mg/mL of test compound delivered in 2.7 mL/pot (roughly equivalent to 4.0, 2.0, 1.0, and 0.5 kg/ha, respectively). Formulated compounds were applied using a DeVilbiss® compressed air sprayer at 2-4 psi. Following treatment, pots were returned to the greenhouse for the duration of the experiment. All pots were sub-irrigated as need to provide optimum growing conditions. All pots were fertilized one time per week by subirrigating with Peters Peat-Lite Special® fertilizer (20-10-20). Phytotoxicity ratings were obtained 10 days after treatment postemergence applications. All evaluations were made visually on a scale of 0 to 100 where 0 represents no activity and 100 represents complete plant death. Visual assessments of plant injury were made based on growth reduction, discoloration, leaf deformity and necrosis

[2] = tested on: giant foxtail (Setaria faberi); assay: Post-emergent Test I herbicidal activity; conditions: 4 Kg ai/ha
Method: as §2

[3] = tested on: sunflower (Helianthus annuus); assay: Post-emergent Test I herbicidal activity; conditions: 4 Kg ai/ha
Method: as §2

[4] = tested on: barnyardgrass (Echinochloa crus-galli); assay: Post-emergent Test I herbicidal activity; conditions: 4 Kg ai/ha
Method: as §2

[5] = tested on: Key Grass and Sedge Weeds as well as Grass Crops; assay: Post-emergent Test II herbicidal activity (Table 16); conditions: post-emergence, 336 h, 14 d; for pest or weed control at 35 g/ha: 35 g ai/ha; for pest or weed control at 70 g/ha: 70 g ai/ha; for pest or weed control at 140 g/ha: 140 g ai/ha; for pest or weed control at 280 g/ha: 280 g ai/ha
In short: as §1

[6] = Abutilon theophrasti, velvetleaf (Abutilon theophrasti), read-out: Visual Growth Reduction (%) 14 Days After Application, ABUTH
[7] = Amaranthus retroflexus, redroot pigweed (Amaranthus retroflexus), read-out: Visual Growth Reduction (%) 14 Days After Application, AMARE
[8] = Brassica napus, oilseed rape, canola (Brassica napus), read-out: Visual Growth Reduction (%) 14 Days After Application, BRSNN
[9] = Chenopodium album, lambsquarters (Chenopodium album), read-out: Visual Growth Reduction (%) 14 Days After Application, CHEAL
[10] = Euphorbia heterophylla, wild poinsettia (Euphorbia heterophylla), read-out: Visual Growth Reduction (%) 14 Days After Application, EPHHL
[11] = Helianthus annuus, sunflower (Helianthus annuus), read-out: Visual Growth Reduction (%) 14 Days After Application, HELAN
[12] = Cyperus esculentus, yellow nutsedge (Cyperus esculentus), read-out: Visual Growth Reduction (%) 14 Days After Application, CYPES
[13] = Echinochloa crus-galli, barnyardgrass (Echinochloa crus-galli), read-out: Visual Growth Reduction (%) 14 Days After Application, ECHCG
[14] = Oryza sativa, rice (Oryza sativa), read-out: Visual Growth Reduction (%) 14 Days After Application, ORYSA
[15] = Setaria faberi, giant foxtail (Setaria faberi), read-out: Visual Growth Reduction (%) 14 Days After Application, SETFA
[16] = Triticum aestivum, wheat, spring (Triticum aestivum), read-out: Visual Growth Reduction (%) 14 Days After Application, TRZAS
[17] = Zea mays, maize, corn (Zea mays), read-out: Visual Growth Reduction (%) 14 Days After Application, ZEAMX

Structure (SMILES): COC(=O)c1nc(-c2ccc3sccc3c2)cc(N)c1Cl [Compound 3.05]
- pest or weed control at 35 g/ha [1, 6]: 85 to 94%
- pest or weed control at 70 g/ha [1, 6]: 85 to 94%
- pest or weed control at 280 g/ha [1, 6]: 95 to 100%
- pest or weed control at 35 g/ha [1, 7]: 30 to 44%
- pest or weed control at 70 g/ha [1, 7]: 45 to 59%
- pest or weed control at 280 g/ha [1, 7]: 85 to 94%
- pest or weed control at 35 g/ha [1, 8]: 0 to 29%
- pest or weed control at 70 g/ha [1, 8]: 0 to 29%
- pest or weed control at 280 g/ha [1, 8]: 0 to 29%
- pest or weed control at 35 g/ha [1, 9]: 75 to 84%
- pest or weed control at 70 g/ha [1, 9]: 85 to 94%
- pest or weed control at 140 g/ha ([1]; Chenopodium album, lambsquarters (Chenopodium album), 140 g ai/ha, read-out: Visual Growth Reduction (%) 14 Days After Application, CHEAL): 85 to 94%
- pest or weed control at 280 g/ha [1, 9]: 85 to 94%
- pest or weed control at 35 g/ha [1, 10]: 60 to 74%
- pest or weed control at 70 g/ha [1, 10]: 60 to 74%
- pest or weed control at 280 g/ha [1, 10]: 85 to 94%
- pest or weed control at 35 g/ha [1, 11]: 0 to 29%
- pest or weed control at 70 g/ha [1, 11]: 0 to 29%
- pest or weed control at 280 g/ha [1, 11]: 45 to 59%
- Visual Growth Reduction (%) 10 Days After Application AVEFA (wild oats (Avena fatua)): C (75-84)
- Visual Growth Reduction (%) 10 Days After Application SETFA [2]: A (95-100)
- Visual Growth Reduction (%) 10 Days After Application HELAN [3]: B (85-94)
- Visual Growth Reduction (%) 10 Days After Application ECHCG [4]: A (95-100)
- pest or weed control at 35 g/ha [5, 12]: 0 to 29%
- pest or weed control at 70 g/ha [5, 12]: 0 to 29%
- pest or weed control at 140 g/ha [5, 12]: 0 to 29%
- pest or weed control at 280 g/ha [5, 12]: 0 to 29%
- pest or weed control at 35 g/ha [5, 13]: 45 to 59%
- pest or weed control at 70 g/ha [5, 13]: 75 to 84%
- pest or weed control at 140 g/ha [5, 13]: 85 to 94%
- pest or weed control at 280 g/ha [5, 13]: 85 to 94%
- pest or weed control at 35 g/ha [5, 14]: 0 to 29%
- pest or weed control at 70 g/ha [5, 14]: 0 to 29%
- pest or weed control at 140 g/ha [5, 14]: 0 to 29%
- pest or weed control at 280 g/ha [5, 14]: 0 to 29%
- pest or weed control at 35 g/ha [5, 15]: 0 to 29%
- pest or weed control at 70 g/ha [5, 15]: 0 to 29%
- pest or weed control at 140 g/ha [5, 15]: 30 to 44%
- pest or weed control at 280 g/ha [5, 15]: 60 to 74%
- pest or weed control at 35 g/ha [5, 16]: 0 to 29%
- pest or weed control at 70 g/ha [5, 16]: 0 to 29%
- pest or weed control at 140 g/ha [5, 16]: 0 to 29%
- pest or weed control at 280 g/ha [5, 16]: 0 to 29%
- pest or weed control at 35 g/ha [5, 17]: 0 to 29%
- pest or weed control at 70 g/ha [5, 17]: 0 to 29%
- pest or weed control at 140 g/ha [5, 17]: 45 to 59%
- pest or weed control at 280 g/ha [5, 17]: 60 to 74%

— patent US20170050957A1, “4-AMINO-6-(HETEROCYCLIC)PICOLINATES AND 6-AMINO-2-(HETEROCYCLIC)PYRIMIDINE-4-CARBOXYLATES AND THEIR USE AS HERBICIDES” (Dow AgroSciences LLC, priority 2013, published 2017)
